From patent US20220289731A1, “MELANOCORTIN-4 RECEPTOR AGONISTS” (LG CHEM, LTD., priority 2019, published 2022)
pEC50, pKi: −log10 of the molar value. Counter-ions that a name gives are not always drawn.

Tests used:
MC4R [1] = biological target: T1, MC4R (Homo sapiens, UniProt P32245); test: Luciferase assay (HEK MC4R-Luc, CRE-LUC); assay type: cell-based; design: expressed in transfected cells; details: HEK MC4R-Luc cells, 5 h incubation
Description: In order to measure the agonist ability against MC4R (melanocortin-4 receptor), a cell line that permanently expresses the luciferase gene (CRE-LUC) under the control of MC4R and CRE (cAMP response element) was established. After a mammalian cell expression vector (pCDNA3 (Neo)) (Invitrogen) containing the MC4R gene was prepared, human embryonic kidney (HEK) cell lines were transformed by using Lipofectamine 2000 (Invitrogen) together with a vector (pCRE-Luc)(Stratagen) expressing a luciferase gene (CRE-LUC) under the control of a cAMP response element (CRE). Transformed cell lines (HEK MC4R-Luc) were incubated in a 37° C. incubator in the presence of 5% CO2 for 24 hours by using Dulbecco's Modified Eagles Medium (DMEM) containing 10% Heat-Inactivated Fetal Bovine Serum (GIBCO/BRL). The cell lines were incubated for four days in the presence of Dulbecco's Modified Eagles Medium (DMEM) containing 10 ml of selection medium (10% Heat-Inactivated Fetal Bovine Serum (GIBCO/BRL), 100 unit/ml of penicillin (GIBCO/BRL), 100 unit/ml of streptomycin (GIBCO/BRL), 800 μg/ml of Geneticin (G418) (GIBCO/BRL). The process of removing cells killed by the selection medium by replacing the medium with 10 ml of a new selection medium was repeated three times, once every 4 days. Individual colonies formed by the finally selected and propagated clones were transferred under a microscope to a 24-well cell culture plate containing 1 ml of selection medium per well and incubated for 4 days. Forskolin (SIGMA) was treated to a final concentration of 10 μM, and then incubated for five hours in a 37° C. incubator in the presence of 5% CO2. Each well was treated with 50 μl of a Bright-Glo luciferase reagent (Promega) and left at room temperature for 15 minutes, and then the luminescence of each well was measured by using a luminometer (Victor).
HEK MC4R-Luc cells were added to each well of a 96-well luminometer cell culture plate (Costar) to a size of 2.5×10^4 cells in 100 μl of a culture medium and then incubated in a 37° C. incubator in the presence of 6% CO2 for 18 hours. […] Each well was treated with 50 μl of a Bright-Glo luciferase reagent (Promega) and left at room temperature for five minutes, and then the luminescence of each well was measured by using a luminometer (Victor). […] EC0.5 MSH is expressed as a concentration that induces 50% of the maximum amount of luminescence that can be induced by NDP-α-MSH, and EC50 is expressed as a concentration that induces 50% of the maximum amount of luminescence that can be induced by each agonist. The measurements were measured using statistical software (Prizm).
Target sequence in this assay (P32245 whole entry, species assumed): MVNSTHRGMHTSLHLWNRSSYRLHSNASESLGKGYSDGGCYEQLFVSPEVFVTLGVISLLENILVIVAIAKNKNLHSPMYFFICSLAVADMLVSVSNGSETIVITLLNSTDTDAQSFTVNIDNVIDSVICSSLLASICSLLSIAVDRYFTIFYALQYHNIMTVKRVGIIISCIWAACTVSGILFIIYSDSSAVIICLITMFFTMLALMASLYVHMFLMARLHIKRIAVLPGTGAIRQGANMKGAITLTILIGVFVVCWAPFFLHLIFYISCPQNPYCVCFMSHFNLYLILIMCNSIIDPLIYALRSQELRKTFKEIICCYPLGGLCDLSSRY

MC4R [2] = biological target: T1, MC4R; test: Binding affinity, 125I-NDP-α-MSH displacement on membranes; design: expressed in transfected cells; host or cells: HEK-293 cells; membranes collected; details: HEK-293 MC4R membrane, 0.02 nM 125I-NDP-α-MSH
Excerpt: Five subtypes of melanocortin receptor (MCR) in vivo are known, and it is known that MC4R, which is Subtype 4, is involved in energy metabolism and weight control. Since other MCR subtypes are involved in the regulation of various functions in vivo such as skin pigmentation, energy homeostasis, and exocrine functions, securing selectivity for MC4R of MC4R agonist compounds is very important in preventing possible side effects in the future. Therefore, the receptor binding abilities of MC4R agonists for each MCR subtype were measured.
After the CHO-K1 cell line expressing human recombinant MC1R and the HEK-293 cell lines expressing MC3R, MC4R and MCSR were established, membranes were collected from each cell line. In a 96-well cell culture plate, 3 μg MC1R membrane and 0.04 nM ^125I-NDP-α-MSH per well were reacted at 37° C. for two hours. 3 μg MC3R and MCSR membrane and 0.035 nM ^125I-NDP-α-MSH were reacted at 37° C. for one hour, and 3.12 μg MC4R membrane and 0.02 nM ^125I-NDP-α-MSH were reacted at 37° C. for two hours. At this time, 25 mM HEPES-KOH adsorption buffer (pH 7.0) containing MCR agonist diluted at each step concentration was added to each well and reacted. The reacted solution was transferred to a filter and washed with an adsorption buffer, and then radioactivity was measured. The value excluding the non-specific binding amount in the presence of 1 μM (MC1R) and 3 μM (MC3R, MC4R, MCSR) of NDP-α-MSH from each total binding amount was used as specific binding amounts of ^125I-NDP-α-MSH. The degree to which the ^125I-NDP-α-MSH specific binding was inhibited by the agonist diluted at each step concentration was measured. IC50 was expressed as the concentration of each agonist that inhibited specific binding of 50% of ^125I-NDP-α-MSH.
Target sequence in this assay (P32245 whole entry): as the sequence (P32245 whole entry, species assumed) above

MC4R [3] = biological target: T1, MC4R; test: cAMP assay (cAMP Hunter Gs-coupled CHO-K1 cell line); assay type: cell-based; design: expressed in transfected cells; host or cells: CHO-K1 (cAMP Hunter Gs-coupled cell line); details: CHO-K1 cells overexpressing MC4R, 30 min at 37° C.
Excerpt: The melanocortin receptor is a type of G-protein coupled receptor (GPCR), and the main role of G-protein is to activate secondary transducers to regulate cellular responses to many physiological stimuli through signal transduction. MC4R is a Gs-coupled receptor, and it is known that if MC4R interacts with an agonist, adenylate cyclase (AC) is activated to increase the concentration of cyclic AMP (cAMP), which is one of the secondary transducers in cells. Therefore, it is possible to evaluate the activity of melanocortin receptors by measuring the generation of cAMP signals.
After cAMP Hunter Gs-coupled cell lines (CHO-K1 cell line) in which each of MC1R, MC3R, MC4R and MCSR was overexpressed were established so that the increase in the cAMP level in cells due to agonist reaction was measurable, the cells were inoculated into each well of a white cell culture plate and incubated for 24 hours in a 37° C. incubator in the presence of 5% CO2. After the incubation, the medium was removed, and 15 μl of a 2:1 HBBS/10 mM HEPES:cAMP XS+Ab reagent was added. After 5 μl of the sample diluted 4 times with buffer was added, the vehicle concentration was set to 1%, and the MC4R agonist compound diluted at each step concentration was added, followed by reaction at 37° C. for 30 minutes. The activity (%) of each agonist compound is expressed as 100%×(average RLU value of sample−average RLU value of vehicle control)/(average RLU value of max control−average RLU value of vehicle control), and the value was analyzed by CBIS data analysis suite (ChemInnovation, CA).
Target sequence in this assay (P32245 whole entry, species assumed): as above

MC4R [4] = biological target: T1, MC4R; test: β-arrestin assay (Pathhunter eXpress U2OS cell line); assay type: cell-based; design: expressed in transfected cells; host or cells: U2OS (Pathhunter eXpress β-arrestin cell line); details: U2OS cells, 90 min at 37° C.
Excerpt: The melanocortin receptor is a type of G-protein coupled receptor (GPCR) and regulates various physiological responses by transducing signals from many neurotransmitters. When GPCR is phosphorylated, β-arrestin is bound to the phosphorylated part of the receptor and plays an important role in activating various signaling pathways in cells through interaction with other proteins. It is known that, when the melanocortin receptor interacts with an agonist, β-arrestin is mobilized and is involved in the β-arrestin-mediated signaling pathway. Therefore, the activity of the melanocortin receptor can be evaluated through the measurement of β-arrestin.
A Pathhunter eXpress β-arrestin cell line (U2OS cell line) in which Prolink (PK)-tagged MC1R, MC3R, MC4R, MC5R and Enzyme acceptor (EA)-tagged β-arrestin were expressed together was established. When the MCR-PK portion of this cell line is activated, β-arrestin-EA is mobilized, and enzyme acceptor (EA) and Prolink (PK), which are the β-galactosidase enzyme fragments, interact. The activated enzyme hydrolyzes the substrate by β-galactosidase activity to produce a chemiluminescent signal, so that the activity can be measured. After the Pathhunter eXpress β-arrestin cell line (U2OS cell line) was incubated, the cells were inoculated into each well of the cell culture plate and incubated for 48 hours in a 37° C. incubator in the presence of 5% CO2. After the incubation, 5 μl of the sample diluted 5 times with buffer was added, the vehicle concentration was set to 1%, and the MC4R agonist compound diluted at each step concentration was added, followed by reaction at 37° C. for 90 minutes. The activity (%) of each agonist compound is expressed as 100%×(average RLU value of sample−average RLU value of vehicle control)/(average maximum value of control ligand−average RLU value of vehicle control), and the value was analyzed by CBIS data analysis suite (ChemInnovation, CA).
Target sequence in this assay (P32245 whole entry): as the sequence (P32245 whole entry, species assumed) above
Target sequence in this assay (P32121 whole entry partner): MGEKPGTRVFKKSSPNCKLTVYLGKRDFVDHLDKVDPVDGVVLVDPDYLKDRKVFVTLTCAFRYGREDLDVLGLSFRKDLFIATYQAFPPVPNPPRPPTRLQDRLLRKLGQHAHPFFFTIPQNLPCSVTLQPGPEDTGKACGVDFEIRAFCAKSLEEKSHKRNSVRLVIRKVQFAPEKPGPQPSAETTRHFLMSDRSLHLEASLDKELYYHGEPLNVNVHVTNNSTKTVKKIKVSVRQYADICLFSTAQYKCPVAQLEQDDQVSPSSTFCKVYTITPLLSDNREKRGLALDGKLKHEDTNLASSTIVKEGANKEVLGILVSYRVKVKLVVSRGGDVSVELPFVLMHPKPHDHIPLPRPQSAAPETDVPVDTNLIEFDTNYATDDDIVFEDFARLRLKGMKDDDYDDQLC

[5] = test system: mouse obesity model induced by high fat diet; test: Mouse obesity model induced by high fat diet; assay type: in vivo, C57BL/6Ntaconic mice; details: Day 12, 10 mg/kg, oral once a day, high-fat-diet obese mice
Description: The effect of melanocortin-4 receptor agonists on obesity was evaluated by using the mouse obesity model induced with a high fat diet.
Five-week-old male C57BL/6Ntaconic mice were fed with a 60 kcal % fat diet (D12492, Research Diet.) for 15 weeks to induce obesity. The compound of Example 1, the compounds of the comparative examples (A95 and A96), and sibutramine as a positive control were prepared in distilled water and orally administered to […] mouse obesity models induced by a high-fat diet once a day from day 1 to day 16. From Day 1 to Day 16, the body weight was measured once a day, the dietary intake was measured five times a week, and drinking water intake was measured twice a week. Blood glucose and glycated hemoglobin were measured on Day 15, and all animals were sacrificed on Day 17. Blood was collected through the abdominal vena cava, and the liver and epididymal adipose tissues were removed and weighed. The collected blood was placed in a heparin tube and centrifuged to separate plasma, and then plasma biochemical analysis was performed.

| SMILES | pEC50 (MC4R [1]) | pKi (MC4R [2]) | pEC50 (MC4R [3]) | pEC50 (MC4R [4]) | Difference in weight change rate to vehicle [5] |
| --- | --- | --- | --- | --- | --- |
| CCC(=O)N([C@H]1C[C@@H](C(=O)N2CCOCC2)N(C(=O)[C@@H]2CN(C(C)(C)C)C[C@H]2c2ccc(Cl)cc2)C1)[C@H]1CC[C@@H](C)CC1 [Example 2, N-((3S,5S)-1-((3S,4R)-1-(tert-butyl)-4-(4-chlorophenyl)pyrrolidine-3-carbonyl)-5-(morpholine-4-carbonyl)pyrrolidin-3-yl)-N-((1s,4R)-4-methylcyclohexyl)propionamide hydrochloride] | 8.97 | 6.96 | 7.30 | 8.06 |  |
| CC(C)(C)C(=O)N([C@H]1C[C@@H](C(=O)N2CCOCC2)N(C(=O)[C@@H]2CN(C(C)(C)C)C[C@H]2c2ccc(Cl)cc2)C1)[C@H]1CC[C@@H](C)CC1 [Example 3, N-((3S,5S)-1-((3S,4R)-1-(tert-butyl)-4-(4-chlorophenyl)pyrrolidine-3-carbonyl)-5-(morpholine-4-carbonyl)pyrrolidin-3-yl)-N-((1s,4R)-4-methylcyclohexyl)pivalamide hydrochloride] | 9.17 | 7.62 | 7.64 | 8.48 |  |
| CC(C)CC(N(C)C)C1(c2ccc(Cl)cc2)CCC1 (stereo not drawn) [Sibutramine] |  |  |  |  | −6.8% |
